# According to US8772489B2, “Optically active 2-hydroxy tetrahydrothienopyridine derivatives, preparation method and use in manufacture of medicament thereof” (Jiangsu Vcare PharmaTech Co. Ltd., priority 2010, dated 2014):
# Several values for one entry are separate records, joined by “and”; a condition that tells them apart may be missing. Identical values can stand only once. Counter-ions that a name gives are not always drawn. Like-named read-outs stand apart in the source and are kept apart here.
# Key:
# [1] = system: platelet aggregation; test: animal or person; assay type: in vivo; details: Rattus norvegicus, read-out: Aggregation inhibition (%)
# Source text: The positive control and the test compounds (prepared in the above examples) were formulated in 0.5% CMC-Na (carboxymethylcellulose sodium) into suspensions for administration to animals.
# Animals: male SD rats, weighed about 250 g, and supplied by Shanghai Super-B&K Laboratory Animal Corp. Ltd. Animal certificate No.: 2008001605451, and license No.: SCXK (Hu); SCXK (Hu) 2008-0016.
# Instruments: a centrifuge (80-2 bench top low-speed centrifuge), an automatic platelet aggregation tester (STELLEXLG-PAPER-I platelet coagulation/aggregation analyzer), and others.
# Methods: the pharmacological activity test of the compounds of the present invention for platelet aggregation was performed following Born's turbidimetric method (Nature, 1962, 194(4832): 927). An agglomeration-promoting substance, adenosine diphosphate (ADP), was added to a platelet rich plasma (PRP), and stirred to allow platelets to aggregate. […] This experiment can be used to evaluate the platelet aggregation effect induced by the test compounds administrated in-vivo or in-vitro.
# The PRP was adjusted with a platelet poor plasma (PPP) to maintain the platelet counts at […]. The PRP was taken into a test cup, and incubated at 37° C. for 10 min. Light transmission was adjusted to 0% with PRP and to 100% with PPP for each measurement. By using ADP (with a final concentration of 5 μM) as an inducer, the platelet aggregation percentages were measured through the turbidimetric method using a platelet aggregation tester, and statistically compared by t-test. The platelet aggregation inhibition was calculated by the equation: platelet aggregation inhibition (%)=[1−(aggregation percent in dosed tube/aggregation percent in control tube)]×100%.
# [2] = Pharmacokinetics and bioavailability of Compound I-2 in rats (plasma Compound IV-1 by LC-MS/MS); assay type: in vivo, rat; details: for Concentration of Compound IV-1 in plasma, single animals / concentration at 0.08 h / concentration at 0.167 h / concentration at 0.5 h / concentration at 1 h / concentration at 2 h / concentration at 4 h / concentration at 6 h: intravenous injection 8 μmol/kg; for concentration at 0.08 h / concentration at 0.167 h / concentration at 0.5 h / concentration at 1 h / concentration at 2 h / concentration at 4 h / concentration at 6 h: 8 μmol/kg
# Source text: The rats were fasted overnight, but allowed free access to water.
# [3] = male SD rats, oral gavage 3 mg/kg, blood after 2 hrs, ADP 5 μM
# [4] = male SD rats, oral gavage 10 mg/kg, blood after 2 hrs, ADP 5 μM
# [5] = SD rats, intravenous injection 8 μmol/kg (2.7 mg/kg), individual animal
structure (smiles),measurement,setting,value
"COC(=O)C(c1ccccc1Cl)N1CCc2sc(OC(C)=O)cc2C1 (racemic) [I-2″, (R,S)-Methyl 2-(2-acetoxy-6,7-dihydrothieno[3,2-c]pyridin-5(4H)-yl)-2-(2-chlorophenyl)-acetate]",inhibition at 3 mg/kg,[1]; [3],43.9%
same,inhibition at 10 mg/kg,[1]; [4],78.5%
"COC(=O)C(c1ccccc1Cl)N1CCc2sc(OC(=O)N(C)C)cc2C1 (racemic) [I-18′, (R,S)-Methyl 2-(2-(N,N-dimethylcarbamoyloxy)-6,7-dihydrothieno[3,2-c]pyridin-5(4H)-yl)-2-(2-chlorophenyl)-acetate]",inhibition at 3 mg/kg,"[1]; po, 2 h",29.8%
"COC(=O)[C@H](c1ccccc1Cl)N1CCc2sccc2C1 [Clopidogrel sulfate, reference compound]",inhibition at 3 mg/kg,"[1]; po, 2 h",15.4%
same,inhibition at 10 mg/kg,"[1]; po, 2 h",79.6%
"COC(=O)[C@H](c1ccccc1Cl)N1CCc2sc(OC(C)=O)cc2C1 [Compound I-2, (S)-Methyl 2-(2-acetoxy-6,7-dihydrothieno[3,2-c]pyridin-5(4H)-yl)-2-(2-chlorophenyl)-acetate]",inhibition at 3 mg/kg,[1]; [3],69.9%
same,inhibition at 10 mg/kg,[1]; [4],83.5%
"CCC(=O)Oc1cc2c(s1)CCN([C@H](C(=O)OC)c1ccccc1Cl)C2 [Compound I-3, (S)-Methyl 2-(2-propanoyloxy-6,7-dihydrothieno[3,2-c]pyridin-5(4H)-yl)-2-(2-chlorophenyl)-acetate]",inhibition at 3 mg/kg,[1]; [3],38.4%
"CCCC(=O)Oc1cc2c(s1)CCN([C@H](C(=O)OC)c1ccccc1Cl)C2 [Compound I-4, (S)-methyl 2-(2-butanoyloxy-6,7-dihydrothieno[3,2-c]pyridin-5 (4H)-yl)-2-(2-chlorophenyl)-acetate]",inhibition at 3 mg/kg,[1]; [3],46.2%
"COC(=O)[C@H](c1ccccc1Cl)N1CCc2sc(OC(=O)c3ccccc3OC(C)=O)cc2C1 [Compound I-5, (S)-methyl 2-(2-(2-acetoxybenzoyloxy)-6,7-dihydrothieno[3,2-c]pyridin-5(4H)-yl)-2-(2-chlorophenyl)-acetate]",inhibition at 3 mg/kg,"[1]; po, 2 h",55.1%
"COC(=O)[C@H](c1ccccc1Cl)N1CCc2sc(OC(=O)C(C)(C)C)cc2C1 [Compound I-7, (S)-methyl 2-(2-pivaloyloxy-6,7-dihydrothieno[3,2-c]pyridin-5(4H)-yl)-2-(2-chlorophenyl)-acetate]",inhibition at 3 mg/kg,[1]; [3],41.9%
"COC(=O)[C@H](c1ccccc1Cl)N1CCc2sc(OC(=O)c3ccc(OC)cc3)cc2C1 [Compound I-11, (S)-Methyl 2-(2-(4-methoxybenzoyloxy)-6,7-dihydrothieno[3,2-c]pyridin-5(4H)-yl)-2-(2-chlorophenyl)-acetate]",inhibition at 3 mg/kg,[1]; [3],13.6%
"COC(=O)[C@H](c1ccccc1Cl)N1CCc2sc(OC(=O)Cc3ccccc3)cc2C1 [Compound I-12, (S)-Methyl 2-(2-phenylacetoxy-6,7-dihydrothieno[3,2-c]pyridin-5(4H)-yl)-2-(2-chlorophenyl)-acetate]",inhibition at 3 mg/kg,[1]; [3],18.3%
"COC(=O)[C@H](c1ccccc1Cl)N1CCc2sc(OC(=O)OCC(C)C)cc2C1 [Compound I-15, (S)-Methyl 2-(2-(isobutoxycarbonyloxy)-6,7-dihydrothieno[3,2-c]pyridin-5(4H)-yl)-2-(2-chlorophenyl)-acetate]",inhibition at 3 mg/kg,[1]; [3],45.3%
"COC(=O)[C@H](c1ccccc1Cl)N1CCC2SC(=O)C=C2C1 (stereo partly drawn) [IV-1, (2S)-Methyl 2-(2-oxo-7,7a-dihydrothieno[3,2-c]pyridin-5 (2H,4H,6H)-yl)-2-(2-chlorophenyl)-acetate]","AUC0-t of Compound IV-1, single animals",[2]; [5],304 ng·h/mL and 229 ng·h/mL
same,"AUC0-∞ of Compound IV-1, single animals",[2]; [5],306 ng·h/mL and 229 ng·h/mL
same,"CLtot of Compound IV-1, single animals",[2]; [5],147 mL/min/kg and 197 mL/min/kg
same,"Cmax of Compound IV-1, single animals",[2]; [5],785 ng/mL and 533 ng/mL
same,"V2 of Compound IV-1, single animals",[2]; [5],18.8 L/kg and 15.9 L/kg and 10.9 L/kg
same,"t1/2 of Compound IV-1, single animals",[2]; [5],78 min and 75 min and 38.6 min
same,"V2 of Compound IV-1, Mean","[2]; SD rats, intravenous injection 8 μmol/kg (2.7 mg/kg), mean of 3",15.2 L/kg
same,"Concentration of Compound IV-1 in plasma, single animals","[2]; SD rats, 0.08 h, individual animal",785 ng/mL and 533 ng/mL
same,"Concentration of Compound IV-1 in plasma, single animals","[2]; SD rats, 0.167 h, individual animal",417 ng/mL and 311 ng/mL
same,"Concentration of Compound IV-1 in plasma, single animals","[2]; SD rats, 0.5 h, individual animal",129 ng/mL and 107 ng/mL
same,"Concentration of Compound IV-1 in plasma, single animals","[2]; SD rats, 1 h, individual animal",49.3 ng/mL and 37.3 ng/mL
same,"Concentration of Compound IV-1 in plasma, single animals","[2]; SD rats, 2 h, individual animal",9.06 ng/mL and 9.74 ng/mL
same,"Concentration of Compound IV-1 in plasma, single animals","[2]; SD rats, 4 h, individual animal",2.87 ng/mL and 2.02 ng/mL
same,"Concentration of Compound IV-1 in plasma, single animals","[2]; SD rats, 6 h, individual animal",0.977 ng/mL and 1.06 ng/mL
same,AUC(0-t),"[2]; male, SD, rat, plasma, iv, 2.7 mg/kg, intravenous injection 8 μmol/kg (2.7 mg/kg), individual animal, read-out: AUC0-t of Compound IV-1, single animals",266 ng·h/mL
same,AUC(0-inf),"[2]; male, SD, rat, plasma, iv, 2.7 mg/kg, intravenous injection 8 μmol/kg (2.7 mg/kg), individual animal, read-out: AUC0-∞ of Compound IV-1, single animals",269 ng·h/mL
same,clearance,"[2]; male, SD, rat, plasma, iv, 2.7 mg/kg, intravenous injection 8 μmol/kg (2.7 mg/kg), individual animal, read-out: CLtot of Compound IV-1, single animals (converted)",167 mL/min/kg
same,Cmax,"[2]; male, SD, rat, plasma, iv, 2.7 mg/kg, intravenous injection 8 μmol/kg (2.7 mg/kg), individual animal, read-out: Cmax of Compound IV-1, single animals",696 ng/mL
same,clearance,"[2]; male, SD, rat, plasma, iv, 2.7 mg/kg, intravenous injection 8 μmol/kg (2.7 mg/kg), mean of 3, read-out: CLtot of Compound IV-1, Mean (converted)",170 mL/min/kg
same,Tmax,"[2]; male, Sprague-Dawley, rat, plasma, 8 umol/kg, SD rats, intravenous injection 8 μmol/kg (2.7 mg/kg), mean of 3, read-out: Tmax of Compound IV-1, Mean",4.98 min
same,AUC(0-t),"[2]; male, Sprague-Dawley, rat, plasma, iv, 8 umol/kg, SD rats, intravenous injection 8 μmol/kg (2.7 mg/kg), mean of 3, read-out: AUC0-t of Compound IV-1, Mean",266 ± 37.6 ng·h/mL
same,AUC(0-inf),"[2]; male, Sprague-Dawley, rat, plasma, iv, 8 umol/kg, SD rats, intravenous injection 8 μmol/kg (2.7 mg/kg), mean of 3, read-out: AUC0-∞ of Compound IV-1, Mean",268 ± 38.3 ng·h/mL
same,Cmax,"[2]; male, Sprague-Dawley, rat, plasma, iv, 8 umol/kg, SD rats, intravenous injection 8 μmol/kg (2.7 mg/kg), mean of 3, read-out: Cmax of Compound IV-1, Mean",671 ± 128 ng/mL
same,half-life,"[2]; male, Sprague-Dawley, rat, plasma, iv, 8 umol/kg, SD rats, intravenous injection 8 μmol/kg (2.7 mg/kg), mean of 3, read-out: t1/2 of Compound IV-1, Mean (converted)",63.6 ± 21.8 min
same,concentration at 0.08 h,"[2]; male, Sprague-Dawley, rat, plasma, iv, SD rats, 0.08 h, individual animal, read-out: Concentration of Compound IV-1 in plasma, single animals",696 ng/mL
same,concentration at 0.08 h,"[2]; male, Sprague-Dawley, rat, plasma, iv, SD rats, 0.08 h, mean of 3, read-out: Concentration of Compound IV-1 in plasma, Mean",671 ng/mL
same,concentration at 0.167 h,"[2]; male, Sprague-Dawley, rat, plasma, iv, SD rats, 0.167 h, individual animal, read-out: Concentration of Compound IV-1 in plasma, single animals",317 ng/mL
same,concentration at 0.167 h,"[2]; male, Sprague-Dawley, rat, plasma, iv, SD rats, 0.167 h, mean of 3, read-out: Concentration of Compound IV-1 in plasma, Mean",348 ng/mL
same,concentration at 0.5 h,"[2]; male, Sprague-Dawley, rat, plasma, iv, SD rats, 0.5 h, individual animal, read-out: Concentration of Compound IV-1 in plasma, single animals",108 ng/mL
same,concentration at 0.5 h,"[2]; male, Sprague-Dawley, rat, plasma, iv, SD rats, 0.5 h, mean of 3, read-out: Concentration of Compound IV-1 in plasma, Mean",115 ng/mL
same,concentration at 1 h,"[2]; male, Sprague-Dawley, rat, plasma, iv, SD rats, 1 h, individual animal, read-out: Concentration of Compound IV-1 in plasma, single animals",51 ng/mL
same,concentration at 1 h,"[2]; male, Sprague-Dawley, rat, plasma, iv, SD rats, 1 h, mean of 3, read-out: Concentration of Compound IV-1 in plasma, Mean",45.9 ng/mL
same,concentration at 2 h,"[2]; male, Sprague-Dawley, rat, plasma, iv, SD rats, 2 h, individual animal, read-out: Concentration of Compound IV-1 in plasma, single animals",10.9 ng/mL
same,concentration at 2 h,"[2]; male, Sprague-Dawley, rat, plasma, iv, SD rats, 2 h, mean of 3, read-out: Concentration of Compound IV-1 in plasma, Mean",9.9 ng/mL
same,concentration at 4 h,"[2]; male, Sprague-Dawley, rat, plasma, iv, SD rats, 4 h, individual animal, read-out: Concentration of Compound IV-1 in plasma, single animals",3.94 ng/mL
same,concentration at 4 h,"[2]; male, Sprague-Dawley, rat, plasma, iv, SD rats, 4 h, mean of 3, read-out: Concentration of Compound IV-1 in plasma, Mean",2.94 ng/mL
same,concentration at 6 h,"[2]; male, Sprague-Dawley, rat, plasma, iv, SD rats, 6 h, individual animal, read-out: Concentration of Compound IV-1 in plasma, single animals",1.29 ng/mL
same,concentration at 6 h,"[2]; male, Sprague-Dawley, rat, plasma, iv, SD rats, 6 h, mean of 3, read-out: Concentration of Compound IV-1 in plasma, Mean",1.11 ng/mL
same,Tmax,"[2]; male, rat, plasma, SD rats, intravenous injection 8 μmol/kg (2.7 mg/kg), individual animal, read-out: Tmax of Compound IV-1, single animals",4.98 min
